Bounds are passed on as bounds.

Here are results for 13 compounds from patent US20090163476A1, “N-Phenyl Benzamide Derivatives as Sirtuin Modulators” (Sirtris Pharmaceuticals, Inc., priority 2005, published 2009).

Holding throughout (type): biochemical
One assay deals with T1, human SIRT3 (Homo sapiens, UniProt Q9NTG7).
T1 construct: The SIRT3 protein used in the assays corresponded to amino acid residues 102-399 of human SIRT3; His-tag (N); made in house; host or cells: E. coli
T1 sequence (Q9NTG7 102-399): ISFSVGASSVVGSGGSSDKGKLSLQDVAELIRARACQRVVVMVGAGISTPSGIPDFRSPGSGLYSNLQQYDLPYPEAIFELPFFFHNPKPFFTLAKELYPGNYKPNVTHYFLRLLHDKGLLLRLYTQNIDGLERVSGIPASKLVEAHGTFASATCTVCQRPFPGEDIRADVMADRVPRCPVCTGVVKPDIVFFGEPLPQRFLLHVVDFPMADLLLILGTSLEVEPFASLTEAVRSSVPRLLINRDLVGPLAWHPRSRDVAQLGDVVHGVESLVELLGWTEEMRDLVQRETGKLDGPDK
As to the kind of experiment: Fluorescence polarization assay of SIRT3 activity (Histone H4-based peptide substrate). Particulars: inhibition of SIRT3 (Table 7). The text has this:
A fluorescence polarization assay was used to identify modulators of SIRT3 activity. The same assay may be used to identify modulators of any sirtuin protein. The assay utilizes a peptide substrate based on a fragment of Histone H4, a known sirtuin deacetylation target. The substrate contains a peptide having 14 amino acid residues as follows: Biotin-GASSHSK(Ac)VLK(MR121) (SEQ ID NO: 3) wherein K(Ac) is an acetylated lysine residue. The peptide is labeled with the fluorophore MR121 (excitation 635 nm/emission 680 nm) at the C-terminus and biotin at the N-terminus.
The peptide substrate is exposed to a sirtuin protein in the presence of NAD^+ to allow deacetylation of the substrate and render it sensitive to cleavage by trypsin. Trypsin is then added and the reaction is carried to completion (i.e., the deacetylated substrate is cleaved) releasing the MR121 fragment. Streptavidin is then added to the reaction where it can bind both the uncleaved substrate (i.e., any remaining acetylated substrate) and the non-fluorescent portion of the cleaved peptide substrate (i.e., the biotin containing fragment). The fluorescence polarization signal observed for the full length peptide substrate bound to streptavidin is higher than the fluorescence polarization signal observed for the released MR121C-terminal fragment. Therefore, the fluorescence polarization obtained is inversely proportional to the level of deacetylation (e.g., the signal is inversely proportional to the activity of the sirtuin protein). Results are read on a microplate fluorescence polarization reader (Molecular Devices Spectramax MD) with appropriate excitation and emission filters.
The fluorescence polarization assays may be conducted as follows: 0.5 μM peptide substrate and 50 μM βNAD^+ is incubated with 2 nM of SIRT3 for 60 minutes at 37° C. in a reaction buffer (25 mM Tris-acetate pH8, 137 mM Na—Ac, 2.7 mM K—Ac, 1 mM Mg—Ac, 0.1% Pluronic F127, 10 mM CaCl2, 1 mM TCEP, 0.025% BSA). Test compounds are solubilized in DMSO and are added to the reaction at 11 concentrations ranging from 0.7 μM to 100 μM. The SIRT3 protein used in the assays corresponded to amino acid residues 102-399 of human SIRT3 with an N-terminal His-tag. […] Fluorescent polarization is determined at excitation (650 nm) and emissions (680 nm) wavelengths. The level of activity of the sirtuin protein in the presence of the various concentrations of test compound are then determined and may be compared to the level of activity of the sirtuin protein in the absence of the test compound, and/or the level of activity of the sirtuin proteins in the negative control (e.g., level of inhibition) and positive control (e.g., level of activation) described below. […]

In assay [1] the target is T2, SIRT1 (Homo sapiens, UniProt Q96EB6).
T2 sequence (Q96EB6 1-747): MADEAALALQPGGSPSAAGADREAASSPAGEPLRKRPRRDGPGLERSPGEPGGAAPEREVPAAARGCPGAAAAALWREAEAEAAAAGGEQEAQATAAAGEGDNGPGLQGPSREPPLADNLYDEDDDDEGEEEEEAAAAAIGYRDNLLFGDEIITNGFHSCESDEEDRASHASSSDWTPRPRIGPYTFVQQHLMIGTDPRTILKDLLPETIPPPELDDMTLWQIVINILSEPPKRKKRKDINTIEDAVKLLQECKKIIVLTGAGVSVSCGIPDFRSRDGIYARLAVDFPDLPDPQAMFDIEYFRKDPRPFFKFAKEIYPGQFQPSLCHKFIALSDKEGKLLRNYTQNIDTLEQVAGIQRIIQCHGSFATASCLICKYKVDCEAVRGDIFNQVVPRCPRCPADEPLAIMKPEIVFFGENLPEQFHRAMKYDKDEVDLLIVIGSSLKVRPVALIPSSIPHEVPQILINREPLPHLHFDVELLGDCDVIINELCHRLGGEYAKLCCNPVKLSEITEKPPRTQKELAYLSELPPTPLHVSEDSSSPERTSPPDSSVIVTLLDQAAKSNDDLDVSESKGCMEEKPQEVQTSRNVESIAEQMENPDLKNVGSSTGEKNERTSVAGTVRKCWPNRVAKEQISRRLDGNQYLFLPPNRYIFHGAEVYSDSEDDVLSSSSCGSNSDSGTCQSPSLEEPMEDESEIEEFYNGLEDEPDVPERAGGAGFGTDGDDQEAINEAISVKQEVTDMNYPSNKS
As to the kind of experiment: SIRT1 fluorescence polarization or mass spectrometry based assay (format not given). The settings on record: inhibition of SIRT1 (Table 5).

Assay [2] addresses T2, SIRT1. As to the kind of experiment: Fluorescence polarization assay of SIRT1 activity (p53-based peptide substrate). Particulars: activation of SIRT1; peptide 1 for Compounds 1-18, peptide 2 for Compounds 19-164; read-out: ED50 FP. As to the method:
A fluorescence polarization or mass spectrometry based assay was used to identify modulators of SIRT1 activity. The same assay may be used to identify modulators of any sirtuin protein. The fluorescence polarization assays utilizes one of two different peptides based on a fragment of p53, a known sirtuin deacetylation target. Compounds 1-18 were tested using a substrate containing peptide 1 having 20 amino acid residues as follows: Ac-EE-K(biotin)-[…](Ac)NleSTEG-K(M121)-EE-NH2 (SEQ ID NO: 1) wherein K(biotin) is a biotinolated lysine residue, K(Ac) is an acetylated lysine residue, Nle is norleucine and K(MR121) is a lysine residue modified by an MR121 fluorophore. This peptide is labeled with the fluorophore MR121 (excitation 635 nm/emission 680 nm) at the C-termini and biotin at the N-termini. The sequence of the peptide substrates are based on p53 with several modifications. In particular, all arginine and […] residues other than the acetylated lysine residues have replaced with serine so that the peptides are not susceptible to trypsin cleavage in the absence of deacetylation. In addition, the methionine residues naturally present in the sequences have been replaced with the norleucine because the methionine may be susceptible to oxidation during synthesis and purification. […] The peptide is labeled with the fluorophore 5TMR (excitation 540 nm/emission 580 nm) at the C-terminus. The sequence of the peptide substrate is also based on p53 with several modifications. In addition, the methionine residue naturally present in the sequence was replaced with the norleucine because the methionine may be susceptible to oxidation during synthesis and purification.
The peptide substrates were exposed to a sirtuin protein in the presence of NAD^+ to allow deacetylation of the substrate and render it sensitive to cleavage by trypsin. Trypsin was then added and the reaction was carried to completion (i.e., the deacetylated substrate is cleaved) releasing the MR121 or 5TMR fragment. Streptavidin is then added to the reaction where it can bind both the uncleaved substrate (i.e., any remaining acetylated substrate) and the non-fluorescent portion of the cleaved peptide substrate (i.e., the biotin containing fragment). The fluorescence polarization signal observed for the full length peptide substrates bound to streptavidin was higher than the fluorescence polarization signal observed for the released MR121 or 5TMR C-terminal fragment. In this way, the fluorescence polarization obtained is inversely proportional to the level of deacetylation (e.g., the signal is inversely proportional to the activity of the sirtuin protein). Results were read on a microplate fluorescence polarization reader (Molecular Devices Spectramax MD) with appropriate excitation and emission filters.
The fluorescence polarization assays using peptide 1 is conducted as follows: 0.5 μM peptide substrate and 150 μM βNAD^+ is incubated with 0.1 μg/mL of SIRT1 for 60 minutes at 37° C. in a reaction buffer (25 mM Tris-acetate pH8, 137 mM Na—Ac, 2.7 mM K—Ac, 1 mM Mg—Ac, 0.05% Tween-20, 0.1% Pluronic F127, 10 mM CaCl2, 5 mM DTT, 0.025% BSA, 0.15 mM Nicotinamide). Test compounds 1-18 were solubilized in DMSO and added to the reaction at 11 concentrations ranging from 0.7 μM to 100 μM.
Fluorescence polarization assays using peptide 2 is conducted as follows: 0.5 μM peptide substrate and 120 μM βNAD^+ were incubated with 3 nM SIRT1 for 20 minutes at 25° C. in a reaction buffer (25 mM Tris-acetate pH8, 137 mM Na—Ac, 2.7 mM K—Ac, 1 mM Mg—Ac, 0.05% Tween-20, 0.1% Pluronic F127, 10 mM CaCl2, 5 mM DTT, 0.025% BSA). Test compounds 19-56 were solubilized in DMSO and added to the reaction at 10 concentrations ranging from 300 μM to 0.15 μM in three-fold dilutions.
After the incubation with SIRT1, nicotinamide was added to the reaction to a final concentration of 3 mM to stop the deacetylation reaction and 0.5 μg/mL of trypsin was added to cleave the deacetylated substrate. […]

The target of assay [3] is T2, SIRT1. Put plainly: Mass spectrometry based assay of SIRT1 activity. Particulars: for EC50: activation of SIRT1, read-out: ED50 MS. Also on record: key to FOLD ACTIVATION MS: A: Fold activation >250%; B: Fold Activation <250%; C: no fold activation. As to the method: The mass spectrometry based assay utilizes a peptide having 20 amino acid residues as follows: […] The sequence of the peptide substrate is based on p53 with several modifications. […] Test compounds may be added to the reaction as described above. […] After the 25 minute incubation with SIRT1, 10 μL of 10% formic acid is added to stop the reaction. Reactions are sealed and frozen for later mass spec analysis. Determination of the mass of the substrate peptide allows for precise determination of the degree of acetylation (i.e. starting material) as compared to deacetylated peptide (product). […] This timepoint is the same as that used for test compounds and, within the linear range, the endpoint represents a change in velocity. For each of the above assays, SIRT1 protein was expressed and purified as follows. The SirT1 gene was cloned into a T7-promoter containing vector and transformed into BL21(DE3). The protein was expressed by induction with 1 mM IPTG as an N-terminal His-tag fusion protein at 18° C. overnight and harvested at 30,000×g. […] The protein was purified over a Ni-NTA column (Amersham) and fractions containing pure protein were pooled, concentrated and run over a sizing column (Sephadex S200 26/60 global). The peak containing soluble protein was collected and run on an Ion-exchange column (MonoQ). […] This protein was concentrated and dialyzed against dialysis buffer (20 mM Tris-HCl, 2 mM TCEP) overnight. The protein was aliquoted and frozen at −80° C. until further use.

At human SIRT3, `COc1ccc(C(=O)Nc2cccc(/C=C/C(=O)N3CCCNCC3)c2)cc1OC` [Compound 18] had an IC50 of 51 to 100 µM.

`O=C(Nc1cccc(/C=C/C(=O)N2CCCNCC2)c1)c1ccc(F)c(C(F)(F)F)c1` [Compound 17] had an IC50 against human SIRT3 of 51 to 100 µM. Consider `O=C(Nc1cccc(-c2nc3ncccc3o2)c1)c1ccc(N2CCCC2)cc1` [Compound 47], for which the IC50 on SIRT1 [1] lay in the range of 51 to 100 µM. Same read-out and setting: for `O=C(O)c1ccc(NC(=O)c2cccc(NC(=O)c3cccs3)c2)cc1` [Compound 13] the value was less than 50 µM. `N#Cc1cccc(C(=O)Nc2ccc(-c3cc(C(N)=O)co3)cc2)c1` [Compound 16]: the 50% inhibitory concentration (IC50) on human SIRT3 was 101 to 150 µM. Turning to `N#Cc1cccc(C(=O)Nc2cccc(-c3nc4ncccc4o3)c2)c1` [Compound 44], on SIRT1 [1], the IC50 is more than 150 µM.

As for `N#Cc1ccc(C(=O)Nc2cccc(-c3nc4ncccc4o3)c2)cc1` [Compound 45], the EC50 at SIRT1 [2] and at SIRT1 [3] was more than 150 µM in each case. For the same compound, the “FOLD ACTIVATION MS” value on SIRT1 [3] is listed as “C”. For the compound `COc1ccc(C(=O)Nc2cccc(-c3nc4ncccc4o3)c2)c(C(F)(F)F)c1` [Compound 40], the EC50 on SIRT1 [2] is more than 150 µM. Besides, at SIRT1 [3], the “FOLD ACTIVATION MS” value was “C” and the EC50 is more than 150 µM. In the case of `O=C(Nc1cccc(-c2nc3ncccc3o2)c1)c1ccc(N2CCCCC2)cc1` [Compound 39], on SIRT1 [2], the EC50 is more than 150 µM. Further, on SIRT1 [3], the “FOLD ACTIVATION MS” value is on record as “C” and the EC50 was more than 150 µM.

For the compound `COc1ccc(C(=O)Nc2cccc(-c3nc4ncccc4o3)c2)cc1C(F)(F)F` [Compound 41], the EC50 at SIRT1 [2] is more than 150 µM. On SIRT1 [3], the “FOLD ACTIVATION MS” value is “C” and the EC50 is more than 150 µM.

As for `O=C(Nc1cccc(-c2nc3ncccc3o2)c1)c1ccccc1` [Compound 56], on SIRT1 [2], the EC50 was more than 150 µM. Further, on SIRT1 [3], the “FOLD ACTIVATION MS” value is “B (Fold Activation <250%)” and the EC50 was less than 50 µM.

As for `COc1ccc(C(=O)Nc2cccc(-c3nc4ncccc4o3)c2)cc1OC` [Compound 52], the EC50 at SIRT1 [2] and at SIRT1 [3] was less than 50 µM throughout. The “FOLD ACTIVATION MS” value on SIRT1 [3] is on record as “B (Fold Activation <250%)”. Take `CC(=O)Oc1ccc(C(=O)Nc2ccc(C(=O)O)cc2NC(=O)c2ccc(OC(C)=O)cc2)cc1` [Compound 14]: on SIRT1 [1], the IC50 was in the range of 51 to 100 µM.
